What was measured:
[1] = target: T1, E. coli RelA (Escherichia coli, UniProt P0AG20); assay: Inhibition of [3H]GDP to [3H]ppGpp conversion by E. coli RelA activated by vacant 70S ribosomes and 100 μM ppGpp; type: biochemical; conditions: for IC50: 30 nM RelA, 0.5 μM vacant 70S, 100 μM ppGpp; for nHill (Hill coefficient of the titration fit): Supplementary Table 1, 4-parameter logistic model
T1 construct: made in house
Procedure: For the initial characterization of compounds, we followed the inhibition of [^3H] GDP conversion to [^3H] ppGpp catalyzed by E. coli RelA in a simplified system in which RelA’s activity was induced by vacant 70S ribosomes and 100 μM of ppGpp[15]. Unlabeled ppGpp was added to reaction mixtures in order to linearize the kinetics of [^3H] ppGpp synthesis due to an activating effect on the RelA enzyme. We used a targeted library of 69 nucleotides belonging to several structural classes: ‘true’ ppGpp analogues; Relacin and its derivatives; pyrrolidine, azetidine, piperidine and acyclic phosphonates. Chemical structures of tested compounds and titrations in the RelA:70S:ppGpp system are presented in Supplementary Table 1.
Detailed description of experimental procedures can be found in Supplementary Text. Biochemical assays utilize in vitro translation[58] and stringent response[15] systems from E. coli purified components. Experiments were performed in HEPES:Polymix[58] buffer with either 5 (for enzymatically assembled initiation complexes) or 15 mM (for vacant 70 S, as well as non-enzymatically assembled programmed ribosomes) Mg^2+. Expression and purification of E. faecalis RelQ was performed as per Gaca (2015) and colleagues. GTPase and ppGpp synthesis were followed using TLC separation and radiochemical detection of ^3H-labelled nucleotides. Multiple round in vitro transcription assays were performed as per Bernardo et al.[49] with minor modifications. Inhibition efficiency (IC50) was calculated using 4-parameter logistic model (Hill equation) as per Sebaugh[60].
Thin layer chromatography (TLC) analysis of nucleotide mixtures
Both EF-G GTPase reaction and ppGpp synthesis by RelA were followed by TLC analysis followed by scintillation counting according to Mechold and colleagues, with modifications1. Time points from the reaction mixtures (5 μl, see below for details) were quenched by addition 4 μl 70% formic acid supplemented with a cold nucleotide standard used for UV-shadowing (10 mM GDP and 10 mM GTP) and spotted on PEI-TLC plates (Macherey-Nagel). TLC was run in buffer, plates dried, cut into sections guided by UV-shadowing and 3H radioactivity was quantified by scintillation counting in Optisafe-3 (Fisher) scintillation cocktail on Perkin Elmer Tricarb 2810TR counter. Conversion of substrate to product was quantified as described in Shyp et al. (2012)2.
Enzymatic assays with E. coli RelA
Screening: all experiments were performed in HEPES:Polymix, Mg2+ of 5 mM, 37 […]
μM ppGpp was pre-incubated at 37° C for 2 min and then reaction started by addition of 1 mM ATP, time points (5 μl) taken, quenched with formic acid and analyzed by TLC. Inhibition efficiency (IC50) was calculated using 4-parameter logistic model (Hill equation) as per Sebaugh (2011)3. […]

[2] = target: T1, E. coli RelA; assay: Inhibition of RelA activated by programmed 'starved' ribosomal complexes containing deacylated A-site tRNAPhe; type: biochemical; conditions: 30 nM RelA, 0.5 μM 70S, 2 μM tRNAPhe, 2 μM tRNAiMet, 2 μM mRNA(MF), 100 μM ppGpp, 0.3 mM [3H]GDP, 1 mM ATP, 5 mM Mg2+; read-out: IC50, 70S(MF:tPhe)
Procedure: Screening was performed in a cost-efficient way using RelA activated by the presence of vacant 70S ribosomes and 100 μM ppGpp. However, to become fully active, RelA requires the presence of ‘starved’ ribosomal complexes containing deacylated A-site tRNA[17]. We therefore prepared ‘starved’ complexes using model mRNA coding for fMetPhe (MF) dipeptide and purified deacylated tRNAs tRNA^Phe and tRNA^fMeti[42] to test the efficiency of DR-4250 and DR-M014 in this more physiologically relevant system (Fig. 4a,b).
Figure 4 Functional studies of DR-M014 and DR-4250 with programmed ribosomal complexes. (a,b) Inhibition of RelA activated by starved ribosomal complexes containing deacylated A-site tRNA^Phe. […]
Both EF-G GTPase reaction and ppGpp synthesis by RelA were followed by TLC analysis followed by scintillation counting according to Mechold and colleagues, with modifications1. […] TLC was run in buffer, plates dried, cut into sections guided by UV-shadowing and 3H radioactivity was quantified by scintillation counting in Optisafe-3 (Fisher) scintillation cocktail on Perkin Elmer Tricarb 2810TR counter. Conversion of substrate to product was quantified as described in Shyp et al. (2012)2. […]
Screening: all experiments were performed in HEPES:Polymix, Mg2+ of 5 mM, 37 °C. […] Inhibition efficiency (IC50) was calculated using 4-parameter logistic model (Hill equation) as per Sebaugh (2011)3. […]

[3] = 0.3 mM [3H]GDP, 1 mM ATP, read-out: IC50
[4] = 5 mM Mg2+, 37 °C, no unit beside the value, titration axis in mM, read-out: IC50 (Supplementary Table 1, example titration)

T1 sequence (P0AG20 whole entry): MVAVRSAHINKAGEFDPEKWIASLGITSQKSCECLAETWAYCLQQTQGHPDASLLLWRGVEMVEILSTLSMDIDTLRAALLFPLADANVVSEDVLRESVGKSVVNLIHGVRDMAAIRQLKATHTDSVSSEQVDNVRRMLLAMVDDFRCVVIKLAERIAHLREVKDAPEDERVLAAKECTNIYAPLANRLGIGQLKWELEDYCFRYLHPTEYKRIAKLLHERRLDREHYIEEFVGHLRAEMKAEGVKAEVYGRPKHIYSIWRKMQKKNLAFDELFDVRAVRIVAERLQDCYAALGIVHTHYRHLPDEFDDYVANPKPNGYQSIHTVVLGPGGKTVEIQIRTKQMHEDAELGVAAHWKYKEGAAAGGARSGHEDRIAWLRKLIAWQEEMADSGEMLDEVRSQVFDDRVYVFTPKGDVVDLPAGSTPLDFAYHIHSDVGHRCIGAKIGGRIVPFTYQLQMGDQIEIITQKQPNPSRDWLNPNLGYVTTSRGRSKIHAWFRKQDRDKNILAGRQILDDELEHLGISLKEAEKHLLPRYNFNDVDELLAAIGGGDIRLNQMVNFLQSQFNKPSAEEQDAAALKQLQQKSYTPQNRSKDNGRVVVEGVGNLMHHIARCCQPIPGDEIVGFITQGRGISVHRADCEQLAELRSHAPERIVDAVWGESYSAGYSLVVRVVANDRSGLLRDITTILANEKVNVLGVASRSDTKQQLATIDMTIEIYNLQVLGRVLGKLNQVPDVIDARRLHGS

Compound	IC50 [1, 3] [mM]	IC50 [1, 4] [mM]	nHill (Hill coefficient of the titration fit) [1]	IC50 [2] [µM]
Nc1nc2c(ncn2C2OC(COP(=O)(O)OCP(=O)(O)O)C(OP(=O)(O)OCP(=O)(O)O)C2O)c(=O)[nH]1 (centres unmarked) [DR-4250, Guanosine 3’,5’-di(phosphonomethoxyphosphate)]	0.054 ± 0.003	0.053 ± 0.003	2.74 ± 0.5	41 ± 7
Nc1nc2c(ncn2C2CCN(C(=O)P(=O)(O)O)CC2)c(=O)[nH]1 [DR-M014]	0.121 ± 0.02	0.12 ± 0.02	1.9 ± 0.5	155 ± 14

Source: article PMC5291098, “Molecular mutagenesis of ppGpp: turning a RelA activator into an inhibitor” (Scientific Reports, 2017)
